Data as given in ChEMBL document CHEMBL4483862, “Open-source discovery of chemical leads for next-generation chemoprotective antimalarials” (2018).

Test system: Plasmodium berghei
Experiment: Luciferase/luciferin-expressing antifolate-resistant parasites were used to infect a culture of HepG2 cells that were pre-incubated with compounds. Infected hepatocytes emit light due to the luciferase reaction. Assay results are presented as the percent inhibition of light emission compared to control. […]
Format: functional
Conditions: sporozoite; for IC90: read-out: LUCIFERASE INFECTION ASSAY - IC90
[1] = read-out: LUCIFERASE INFECTION ASSAY - IC50

| SMILES | IC90 | IC50 [1] | other results |
| --- | --- | --- | --- |
| CCC(C)NC(=O)c1c(NC(=O)c2ccc(F)cc2)nc2ccc(C)cn12 (stereo unspecified) | 3.49 µM |  | IC50 (HEPG2TOX_HILL_SLOPE 5.39, HEPG2TOX_R_SQUARED 0.713, PBLUC_HILL_SLOPE 10.6, PBLUC_R_SQUARED 0.548, read-out: LUCIFERASE INFECTION ASSAY - IC50): 2.84 µM |
| CSc1sc(C(=O)Nc2cc(C(F)(F)F)cc(C(F)(F)F)c2)c(-c2ccc(Cl)cc2)c1C#N | 2.43 µM | 0.839 µM |  |
| CC(C)Oc1cccc(Nc2nccc3[nH]c(-c4ccccc4)cc23)c1 | 7.93 µM |  | IC50 (HEPG2TOX_HILL_SLOPE 8.91, HEPG2TOX_R_SQUARED 0.686, PBLUC_HILL_SLOPE 1.92, PBLUC_R_SQUARED 0.493, read-out: LUCIFERASE INFECTION ASSAY - IC50): 2.53 µM |
| CSc1sc(C(=O)Nc2ccc(F)c(Cl)c2)c(-c2ccc(Cl)cc2)c1C#N | > 7.55 µM |  | IC50 (FFLUC_HILL_SLOPE 1.91, FFLUC_R_SQUARED 0.467, read-out: LUCIFERASE INFECTION ASSAY - IC50): > 7.55 µM |
| Cc1nn(C(=O)c2c(Cl)cccc2Cl)c(C)c1Cc1c(Cl)cccc1Cl | > 7.71 µM |  | IC50 (PBLUC_HILL_SLOPE 3.14, PBLUC_R_SQUARED 0.492, read-out: LUCIFERASE INFECTION ASSAY - IC50): 5.28 µM |
| Cc1ccc2nc(C)c(CN3CCN(c4ccc([N+](=O)[O-])cc4Cl)CC3)n2c1 | > 10 µM | > 10 µM |  |
| COc1ccc2c(c1)CCCC21NC(=O)N(Cc2nc3ccccc3s2)C1=O (stereo unspecified) | 8.43 µM |  | IC50 (PBLUC_HILL_SLOPE 1.51, PBLUC_R_SQUARED 0.684, read-out: LUCIFERASE INFECTION ASSAY - IC50): 1.97 µM |
| CN1CCN(S(=O)(=O)c2ccc(SCC3CCCCC3)nc2)CC1 | > 10 µM | > 10 µM |  |
| Cc1nn2c(=O)cc(CSc3ccc(Cl)cc3)[nH]c2c1-c1ccccc1 | 1.17 µM |  | IC50 (FFLUC_HILL_SLOPE 20.8, FFLUC_R_SQUARED 0.612, HEPG2TOX_HILL_SLOPE 1.69, HEPG2TOX_R_SQUARED 0.683, PBLUC_HILL_SLOPE 14, PBLUC_R_SQUARED 0.557, read-out: LUCIFERASE INFECTION ASSAY - IC50): 0.998 µM |
| CCCc1cc(-n2ccnc2)n2ncc(-c3ccccc3)c2n1 | > 10.9 µM |  | IC50 (PBLUC_HILL_SLOPE 1.29, PBLUC_R_SQUARED 0.543, read-out: LUCIFERASE INFECTION ASSAY - IC50): 5.89 µM |
| COC(=O)c1cc(C#N)c(Sc2ncc([N+](=O)[O-])s2)nc1C(OC)OC | > 8.32 µM |  | IC50 (FFLUC_HILL_SLOPE 0.469, FFLUC_R_SQUARED 0.297, HEPG2TOX_HILL_SLOPE 12.3, HEPG2TOX_R_SQUARED 0.829, PBLUC_HILL_SLOPE 2.84, PBLUC_R_SQUARED 0.141, read-out: LUCIFERASE INFECTION ASSAY - IC50): > 8.32 µM |
| COC(=O)c1cc(C(=O)OC)cc(-n2c(C)cc(C(=O)Cn3ncc(Cl)c(Cl)c3=O)c2C)c1 | 4.48 µM |  | IC50 (FFLUC_HILL_SLOPE 11.1, FFLUC_R_SQUARED 0.501, HEPG2TOX_HILL_SLOPE 4.27, HEPG2TOX_R_SQUARED 0.789, PBLUC_HILL_SLOPE 11.5, PBLUC_R_SQUARED 0.682, read-out: LUCIFERASE INFECTION ASSAY - IC50): 3.7 µM |
| CN(Cc1cc(=O)n2c([nH]c3ccccc32)c1C#N)Cc1c(F)cccc1Cl | 6.11 µM |  | IC50 (HEPG2TOX_HILL_SLOPE 0.22, HEPG2TOX_R_SQUARED 0.757, PBLUC_HILL_SLOPE 1.9, PBLUC_R_SQUARED 0.518, read-out: LUCIFERASE INFECTION ASSAY - IC50): 1.92 µM |
| O=C(CCCc1cccs1)Nc1nnc[nH]1 | > 10 µM |  | IC50 (PBLUC_HILL_SLOPE 0.436, PBLUC_R_SQUARED 0.0408, read-out: LUCIFERASE INFECTION ASSAY - IC50): > 10 µM |
| O=C(Nc1ccc(Cl)cc1)n1ccc(/C=C/c2ncc(C(F)(F)F)cc2Cl)n1 | > 7.72 µM |  | IC50 (HEPG2TOX_HILL_SLOPE 28.5, HEPG2TOX_R_SQUARED 0.883, PBLUC_HILL_SLOPE 15.5, PBLUC_R_SQUARED 0.352, read-out: LUCIFERASE INFECTION ASSAY - IC50): 7.23 µM |
| N#Cc1cnc(S)nc1N | > 21.7 µM | > 21.7 µM |  |
| O=C(Cn1ncc(Cl)c(Cl)c1=O)Nc1ccc(OCc2ccccc2)cc1 | > 10 µM | > 10 µM |  |
| CN1CCN(c2ccc(Cl)cc2NC(=O)Cn2c3ccccc3c(=O)c3ccccc32)CC1 | > 10 µM |  | IC50 (PBLUC_HILL_SLOPE 2.6, PBLUC_R_SQUARED 0.61, read-out: LUCIFERASE INFECTION ASSAY - IC50): 4.43 µM |
| CN(C)C(=O)Oc1ccc(Br)cc1C(=O)Nc1ccc(F)c(Cl)c1 | > 7.94 µM | > 7.94 µM |  |
| CCOC(=O)c1cc(C#N)c(Sc2ccccn2)nc1C(F)(F)F | > 9.34 µM | > 9.34 µM |  |
| C/C(=N\Nc1cccc([N+](=O)[O-])c1)c1cc2ccccc2o1 | 4.09 µM |  | IC50 (PBLUC_HILL_SLOPE 10.9, PBLUC_R_SQUARED 0.683, read-out: LUCIFERASE INFECTION ASSAY - IC50): 3.34 µM |
| CN(c1ccccc1)S(=O)(=O)c1cccc(NC(=O)Nc2ccccc2[N+](=O)[O-])c1 | > 10 µM | > 10 µM |  |

| SMILES | IC90 | IC50 [1] | other results |
| --- | --- | --- | --- |
| Cc1cccc2nc(C(=O)Nc3ccc4c(c3)nc3n4CCCCC3)cn12 | > 10 µM |  | IC50 (FFLUC_HILL_SLOPE 1.04, FFLUC_R_SQUARED 0.903, PBLUC_HILL_SLOPE 0.368, PBLUC_R_SQUARED 0.555, read-out: LUCIFERASE INFECTION ASSAY - IC50): 0.159 µM |
| CCc1nn2c(NCc3cccnc3)cc(C)nc2c1-c1ccccc1 | > 9.61 µM |  | IC50 (PBLUC_HILL_SLOPE 2.62, PBLUC_R_SQUARED 0.301, read-out: LUCIFERASE INFECTION ASSAY - IC50): 7.32 µM |
| COc1ccccc1-n1cnnc1SCC(=O)NC(C)c1ccc(CC(C)C)cc1 (stereo unspecified) | > 10 µM | > 10 µM |  |
| Cc1occc1NC(=O)N1[C@@H]2CC[C@@H](C2)[C@H]1c1nc2cccc(OCc3ccc(F)cc3)c2[nH]1 | > 10 µM | > 10 µM |  |
| O=S(=O)(c1ccc2ccccc2c1)N1CCCC1c1ccncc1 (stereo unspecified) | > 10 µM |  | IC50 (HEPG2TOX_HILL_SLOPE 4.75, HEPG2TOX_R_SQUARED 0.828, PBLUC_HILL_SLOPE 11, PBLUC_R_SQUARED 0.196, read-out: LUCIFERASE INFECTION ASSAY - IC50): 9.32 µM |
| CNC(=O)NC(=O)COc1ccccc1C#N | > 10 µM |  | IC50 (FFLUC_HILL_SLOPE 16.2, FFLUC_R_SQUARED 0.422, read-out: LUCIFERASE INFECTION ASSAY - IC50): > 10 µM |
| O=c1nc(Nc2ccc(Cl)cc2)[nH]nc1Cc1ccc(Cl)cc1 | 5.05 µM |  | IC50 (PBLUC_HILL_SLOPE 2.36, PBLUC_R_SQUARED 0.336, read-out: LUCIFERASE INFECTION ASSAY - IC50): 1.99 µM |
| COc1ccc(-c2cnc3cnc(-c4cnn(C)c4)cn23)cn1 | > 10.8 µM |  | IC50 (PBLUC_HILL_SLOPE 3.07, PBLUC_R_SQUARED 0.552, read-out: LUCIFERASE INFECTION ASSAY - IC50): 6.4 µM |
| O=C(Nc1nc2ccccn2c1C(=O)NC1CCCCC1)c1ccccc1Cl | 8.12 µM |  | IC50 (FFLUC_HILL_SLOPE 10.6, FFLUC_R_SQUARED 0.389, HEPG2TOX_HILL_SLOPE 7.19, HEPG2TOX_R_SQUARED 0.725, PBLUC_HILL_SLOPE 14.8, PBLUC_R_SQUARED 0.156, read-out: LUCIFERASE INFECTION ASSAY - IC50): 7 µM |
| Cc1cc(=O)nc(N/N=C2/CCc3ccccc3C2)[nH]1 | > 10 µM | 5.6 µM |  |
| CN(C)C(=O)CN(C)S(=O)(=O)/C=C/c1ccccc1 | > 10 µM | > 10 µM |  |
| Cc1noc(C)c1COc1cccc(C(=O)Nc2cccc(S(=O)(=O)Nc3cccc(C(F)(F)F)c3)c2)c1 | > 10 µM |  | IC50 (FFLUC_HILL_SLOPE 1.54, FFLUC_R_SQUARED 0.286, HEPG2TOX_HILL_SLOPE 4.14, HEPG2TOX_R_SQUARED 0.909, PBLUC_HILL_SLOPE 1.42, PBLUC_R_SQUARED 0.59, read-out: LUCIFERASE INFECTION ASSAY - IC50): 6.04 µM |
| Clc1ccc2c(NCc3ccccc3)ccnc2c1 | 4.19 µM |  | IC50 (PBLUC_HILL_SLOPE 8.08, PBLUC_R_SQUARED 0.339, read-out: LUCIFERASE INFECTION ASSAY - IC50): 3.19 µM |
| CS(=O)(=O)NCCc1ccc(C(=O)Nc2ncccc2O)cc1 | > 10 µM |  | IC50 (PBLUC_HILL_SLOPE 2.26, PBLUC_R_SQUARED 0.152, read-out: LUCIFERASE INFECTION ASSAY - IC50): 6.59 µM |
| Cc1ccc(C(=O)NCc2nsc(=N/C(=N\c3ccccc3)c3ccccc3)n2Cc2ccccc2)cc1 | > 10 µM |  | IC50 (FFLUC_HILL_SLOPE 3.57, FFLUC_R_SQUARED 0.485, HEPG2TOX_HILL_SLOPE 6.57, HEPG2TOX_R_SQUARED 0.579, PBLUC_HILL_SLOPE 15.6, PBLUC_R_SQUARED 0.234, read-out: LUCIFERASE INFECTION ASSAY - IC50): 8.74 µM |
| NC(=O)c1ccc(-c2cc(-c3cccc(F)c3)cnc2N)cc1 | 10.5 µM |  | IC50 (PBLUC_HILL_SLOPE 18, PBLUC_R_SQUARED 0.175, read-out: LUCIFERASE INFECTION ASSAY - IC50): 9.29 µM |
| COc1cc(C(=O)NC(c2ccccc2)c2ccc(C)cc2)ccc1OCC(=O)N1CCOCC1 (stereo unspecified) | > 10 µM | > 10 µM |  |
| CNc1nc2cnc(-c3cccc4ccccc34)cc2n1-c1ccccc1 | > 10 µM |  | IC50 (PBLUC_HILL_SLOPE 1.54, PBLUC_R_SQUARED 0.64, read-out: LUCIFERASE INFECTION ASSAY - IC50): 4.99 µM |
| Clc1ccc(Cl)c(-c2ccc(CNCCN3CCNCC3)o2)c1 | 7.07 µM |  | IC50 (HEPG2TOX_HILL_SLOPE 36.7, HEPG2TOX_R_SQUARED 0.263, PBLUC_HILL_SLOPE 4.39, PBLUC_R_SQUARED 0.663, read-out: LUCIFERASE INFECTION ASSAY - IC50): 4.28 µM |
| CCc1ccc(C2NC(=O)NC(C)=C2C(=O)c2ccccc2)cc1 (stereo unspecified) | > 10 µM | > 10 µM |  |
| C/C(=N\NC(=S)NC(C)(C)C)c1ccc(OCc2ncc(C(F)(F)F)cc2Cl)cc1 | 0.938 µM | 0.801 µM |  |
